For one series, the target named is T1, CHEK1 (Homo sapiens, UniProt O14757).
T1 sequence (O14757 whole entry): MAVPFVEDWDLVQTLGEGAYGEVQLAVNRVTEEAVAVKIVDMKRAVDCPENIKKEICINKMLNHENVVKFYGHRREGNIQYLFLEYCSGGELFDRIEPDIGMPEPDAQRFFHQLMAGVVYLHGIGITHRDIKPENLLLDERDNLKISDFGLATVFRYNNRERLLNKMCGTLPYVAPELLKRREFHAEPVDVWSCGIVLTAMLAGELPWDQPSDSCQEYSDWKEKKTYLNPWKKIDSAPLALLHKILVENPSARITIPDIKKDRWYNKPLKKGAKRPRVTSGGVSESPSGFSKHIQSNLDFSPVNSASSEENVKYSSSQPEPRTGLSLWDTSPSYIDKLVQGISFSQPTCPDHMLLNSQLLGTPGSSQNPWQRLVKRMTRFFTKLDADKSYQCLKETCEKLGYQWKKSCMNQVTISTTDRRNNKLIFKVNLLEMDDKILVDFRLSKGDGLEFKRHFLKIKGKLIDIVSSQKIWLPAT
As to the kind of experiment: Inhibition of recombinant human full-length His-tagged CHEK1 expressed in baculovirus expression system at 25 uM using FRET-labeled Ser/Thr 19 peptide as substrate measured after 1 hr by Z'-lyte assay relative to control. The settings on record: probe FRET-labeled Ser/Thr 19 peptide.

In another series the target is MAP4K4 (Homo sapiens, UniProt O95819). Briefly: Inhibition of recombinant human GST-tagged MAP4K4 catalytic domain (1 to 328 residues) expressed in baculovirus expression system at 25 uM using FRET-labeled Ser/Thr 07 peptide as substrate measured after 1 hr by Z'-lyte assay relative to control. The settings on record: probe FRET-labeled Ser/Thr 07 peptide.
The target in a further series is AKT1 (Homo sapiens, UniProt P31749). As to the kind of experiment: Inhibition of recombinant human full-length His-tagged AKT1 expressed in baculovirus expression system at 25 uM using FRET-labeled Ser/Thr 05 peptide as substrate measured after 1 hr by Z'-lyte assay relative to control. The settings on record: probe FRET-labeled Ser/Thr 05 peptide.
The target in a further series is PDK1 (Homo sapiens, UniProt Q15118). Briefly: Inhibition of recombinant human full-length His-tagged PDK1 expressed in baculovirus expression system at 25 uM using FRET-labeled Ser/Thr 07 peptide as substrate measured after 1 hr by Z'-lyte assay relative to control. The settings on record: probe FRET-labeled Ser/Thr 07 peptide.
In a further series the target is NTRK1 (Homo sapiens, UniProt P04629). Briefly: Inhibition of recombinant human His-tagged NTRK1 cytoplasmic domain (441 to 796 residues) expressed in baculovirus expression system at 25 uM using FRET-labeled tyr 07 peptide as substrate measured after 1 hr by Z'-lyte assay relative to control. The settings on record: probe FRET-labeled tyr 07 peptide.
The target of the next series is INSR (Homo sapiens, UniProt P06213). As to the kind of experiment: Inhibition of recombinant human GST-tagged INSR cytoplasmic domain (1011 to 1382 residues) expressed in baculovirus expression system at 25 uM using FRET-labeled Tyr 01 peptide as substrate measured after 1 hr by Z'-lyte assay relative to control. The settings on record: probe FRET-labeled Tyr 01 peptide.

Another series deals with T2, PRKCZ (Homo sapiens, UniProt Q05513).
T2 sequence (Q05513 whole entry): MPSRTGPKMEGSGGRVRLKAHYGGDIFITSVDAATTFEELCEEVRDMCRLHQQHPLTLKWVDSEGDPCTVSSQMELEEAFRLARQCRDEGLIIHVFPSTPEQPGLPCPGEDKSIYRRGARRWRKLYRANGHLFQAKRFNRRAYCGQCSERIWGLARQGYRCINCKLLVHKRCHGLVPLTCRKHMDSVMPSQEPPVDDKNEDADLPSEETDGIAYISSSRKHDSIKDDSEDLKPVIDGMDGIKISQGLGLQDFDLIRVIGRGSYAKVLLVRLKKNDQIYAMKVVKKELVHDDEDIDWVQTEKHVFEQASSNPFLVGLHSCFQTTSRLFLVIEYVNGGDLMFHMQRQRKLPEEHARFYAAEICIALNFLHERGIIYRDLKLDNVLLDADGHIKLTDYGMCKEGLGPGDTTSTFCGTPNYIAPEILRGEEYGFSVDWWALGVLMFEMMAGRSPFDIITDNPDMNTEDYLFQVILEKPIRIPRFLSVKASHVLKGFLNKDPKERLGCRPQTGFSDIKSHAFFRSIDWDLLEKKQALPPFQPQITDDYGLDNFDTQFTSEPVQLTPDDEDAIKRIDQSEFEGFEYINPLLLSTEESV
As to the kind of experiment: Inhibition of recombinant human full-length untagged PRKCZ expressed in baculovirus expression system at 25 uM using FRET-labeled Ser/Thr 07 peptide as substrate measured after 1 hr by Z'-lyte assay relative to control. The settings on record: probe FRET-labeled Ser/Thr 07 peptide.

The next series deals with CSNK1D (Homo sapiens, UniProt P48730). As to the kind of experiment: Inhibition of recombinant human full-length GST-tagged CSNK1D expressed in baculovirus expression system at 25 uM using FRET-labeled Ser/Thr 11 peptide as substrate measured after 1 hr by Z'-lyte assay relative to control. The settings on record: probe FRET-labeled Ser/Thr 11 peptide.
For the next series, the target named is FGFR1 (Homo sapiens, UniProt P11362). As to the kind of experiment: Inhibition of recombinant human His-tagged FGFR1 cytoplasmic domain (308 to 731 residues) expressed in baculovirus expression system at 25 uM using FRET-labeled tyr 04 peptide as substrate measured after 1 hr by Z'-lyte assay relative to control. The settings on record: probe FRET-labeled tyr 04 peptide.

Another series has as its target CHEK2 (Homo sapiens, UniProt O96017). Briefly: Inhibition of recombinant human full-length His-tagged CHEK2 expressed in baculovirus expression system at 25 uM using FRET-labeled Ser/Thr 07 peptide as substrate measured after 1 hr by Z'-lyte assay relative to control. The settings on record: probe FRET-labeled Ser/Thr 07 peptide.
For a further series, the target named is MAPKAPK2 (Homo sapiens, UniProt P49137). As to the kind of experiment: Inhibition of recombinant human full-length His-tagged MAPKAPK2 expressed in Escherichia coli at 25 uM using FRET-labeled Ser/Thr 04 peptide as substrate measured after 1 hr by Z'-lyte assay relative to control. The settings on record: probe FRET-labeled Ser/Thr 04 peptide.
The next series deals with GSK3B (Homo sapiens, UniProt P49841). As to the kind of experiment: Inhibition of recombinant human full-length His-tagged GSK3B expressed in baculovirus expression system at 25 uM using FRET-labeled Ser/Thr 09 peptide as substrate measured after 1 hr by Z'-lyte assay relative to control. The settings on record: probe FRET-labeled Ser/Thr 09 peptide.
In the next series the target is PAK4 (Homo sapiens, UniProt O96013). Briefly: Inhibition of recombinant human GST-tagged PAK4 catalytic domain (295 to 591 residues) expressed in baculovirus expression system at 25 uM using FRET-labeled Ser/Thr 20 peptide as substrate measured after 1 hr by Z'-lyte assay relative to control. The settings on record: probe FRET-labeled Ser/Thr 20 peptide.
For a further series, the target named is EGFR (Homo sapiens, UniProt P00533). As to the kind of experiment: Inhibition of recombinant human GST-tagged EGFR cytoplasmic domain (668 to 1210 residues) expressed in baculovirus expression system at 25 uM using FRET-labeled tyr 04 peptide as substrate measured after 1 hr by Z'-lyte assay relative to control. The settings on record: probe FRET-labeled tyr 04 peptide.

A further series concerns Escherichia coli. As to the kind of experiment: Antibacterial activity against Escherichia coli DM4100 harboring deltatolC mutant measured after 18 to 20 hrs in presence of permeabilizing agent PMBN by broth microdilution method. It is filed as functional.

PDK1, sequence (Q15118 whole entry, the tested form may be a part): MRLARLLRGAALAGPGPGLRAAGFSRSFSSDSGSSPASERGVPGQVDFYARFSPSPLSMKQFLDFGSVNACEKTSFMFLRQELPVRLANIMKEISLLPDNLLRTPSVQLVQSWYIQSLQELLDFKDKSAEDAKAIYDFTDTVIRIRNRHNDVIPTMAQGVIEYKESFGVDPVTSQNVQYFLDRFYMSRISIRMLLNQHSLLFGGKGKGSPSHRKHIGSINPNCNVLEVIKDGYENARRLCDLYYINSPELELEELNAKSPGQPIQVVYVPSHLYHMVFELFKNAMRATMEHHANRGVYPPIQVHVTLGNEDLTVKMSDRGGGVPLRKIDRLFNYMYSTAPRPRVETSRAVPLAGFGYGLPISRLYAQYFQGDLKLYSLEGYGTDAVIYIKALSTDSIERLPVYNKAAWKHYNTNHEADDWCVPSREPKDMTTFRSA
GSK3B, sequence (P49841 whole entry, the tested form may be a part): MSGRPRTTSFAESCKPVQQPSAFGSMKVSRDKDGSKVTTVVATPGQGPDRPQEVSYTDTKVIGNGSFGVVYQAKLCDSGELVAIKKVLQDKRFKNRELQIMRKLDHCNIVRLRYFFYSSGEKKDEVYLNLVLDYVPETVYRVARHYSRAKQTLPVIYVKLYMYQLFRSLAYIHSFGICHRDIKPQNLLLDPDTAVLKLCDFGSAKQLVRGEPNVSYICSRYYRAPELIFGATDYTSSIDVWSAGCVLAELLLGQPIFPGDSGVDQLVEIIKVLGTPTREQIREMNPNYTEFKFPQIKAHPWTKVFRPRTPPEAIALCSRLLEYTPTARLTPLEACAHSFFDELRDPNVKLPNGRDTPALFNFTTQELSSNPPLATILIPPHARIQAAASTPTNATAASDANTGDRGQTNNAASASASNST
EGFR, sequence (P00533 whole entry, the tested form may be a part): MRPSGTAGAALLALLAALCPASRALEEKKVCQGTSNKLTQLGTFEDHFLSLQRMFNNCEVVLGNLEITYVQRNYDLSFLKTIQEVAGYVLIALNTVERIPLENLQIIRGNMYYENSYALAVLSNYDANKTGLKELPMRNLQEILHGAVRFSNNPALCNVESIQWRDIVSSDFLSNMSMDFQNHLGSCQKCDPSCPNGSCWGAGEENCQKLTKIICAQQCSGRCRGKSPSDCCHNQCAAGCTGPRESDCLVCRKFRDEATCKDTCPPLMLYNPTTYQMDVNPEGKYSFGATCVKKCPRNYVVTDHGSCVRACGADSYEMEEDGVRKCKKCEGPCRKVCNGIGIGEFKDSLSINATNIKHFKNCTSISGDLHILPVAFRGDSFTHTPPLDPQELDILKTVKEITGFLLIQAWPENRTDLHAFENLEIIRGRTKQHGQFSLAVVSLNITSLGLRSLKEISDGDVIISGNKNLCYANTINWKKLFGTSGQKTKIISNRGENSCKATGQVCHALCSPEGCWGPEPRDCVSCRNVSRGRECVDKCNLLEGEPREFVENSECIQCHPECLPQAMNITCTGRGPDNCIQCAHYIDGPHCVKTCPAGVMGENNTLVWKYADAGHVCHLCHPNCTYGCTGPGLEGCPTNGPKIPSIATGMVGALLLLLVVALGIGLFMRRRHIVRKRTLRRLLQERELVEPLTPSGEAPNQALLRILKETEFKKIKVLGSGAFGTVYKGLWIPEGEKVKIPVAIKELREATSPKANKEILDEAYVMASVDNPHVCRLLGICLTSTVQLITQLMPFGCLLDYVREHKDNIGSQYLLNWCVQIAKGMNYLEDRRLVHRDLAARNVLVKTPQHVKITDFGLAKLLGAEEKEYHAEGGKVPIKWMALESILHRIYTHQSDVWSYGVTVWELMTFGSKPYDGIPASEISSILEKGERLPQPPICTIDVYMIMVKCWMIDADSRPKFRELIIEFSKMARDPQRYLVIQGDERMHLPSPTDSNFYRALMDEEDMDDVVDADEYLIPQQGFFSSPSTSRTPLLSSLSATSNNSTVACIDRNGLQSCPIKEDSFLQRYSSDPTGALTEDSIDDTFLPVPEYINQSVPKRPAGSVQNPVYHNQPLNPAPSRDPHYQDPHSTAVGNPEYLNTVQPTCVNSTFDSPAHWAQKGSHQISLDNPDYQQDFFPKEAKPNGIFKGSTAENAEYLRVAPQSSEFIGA
MAP4K4, sequence (O95819 whole entry, the tested form may be a part): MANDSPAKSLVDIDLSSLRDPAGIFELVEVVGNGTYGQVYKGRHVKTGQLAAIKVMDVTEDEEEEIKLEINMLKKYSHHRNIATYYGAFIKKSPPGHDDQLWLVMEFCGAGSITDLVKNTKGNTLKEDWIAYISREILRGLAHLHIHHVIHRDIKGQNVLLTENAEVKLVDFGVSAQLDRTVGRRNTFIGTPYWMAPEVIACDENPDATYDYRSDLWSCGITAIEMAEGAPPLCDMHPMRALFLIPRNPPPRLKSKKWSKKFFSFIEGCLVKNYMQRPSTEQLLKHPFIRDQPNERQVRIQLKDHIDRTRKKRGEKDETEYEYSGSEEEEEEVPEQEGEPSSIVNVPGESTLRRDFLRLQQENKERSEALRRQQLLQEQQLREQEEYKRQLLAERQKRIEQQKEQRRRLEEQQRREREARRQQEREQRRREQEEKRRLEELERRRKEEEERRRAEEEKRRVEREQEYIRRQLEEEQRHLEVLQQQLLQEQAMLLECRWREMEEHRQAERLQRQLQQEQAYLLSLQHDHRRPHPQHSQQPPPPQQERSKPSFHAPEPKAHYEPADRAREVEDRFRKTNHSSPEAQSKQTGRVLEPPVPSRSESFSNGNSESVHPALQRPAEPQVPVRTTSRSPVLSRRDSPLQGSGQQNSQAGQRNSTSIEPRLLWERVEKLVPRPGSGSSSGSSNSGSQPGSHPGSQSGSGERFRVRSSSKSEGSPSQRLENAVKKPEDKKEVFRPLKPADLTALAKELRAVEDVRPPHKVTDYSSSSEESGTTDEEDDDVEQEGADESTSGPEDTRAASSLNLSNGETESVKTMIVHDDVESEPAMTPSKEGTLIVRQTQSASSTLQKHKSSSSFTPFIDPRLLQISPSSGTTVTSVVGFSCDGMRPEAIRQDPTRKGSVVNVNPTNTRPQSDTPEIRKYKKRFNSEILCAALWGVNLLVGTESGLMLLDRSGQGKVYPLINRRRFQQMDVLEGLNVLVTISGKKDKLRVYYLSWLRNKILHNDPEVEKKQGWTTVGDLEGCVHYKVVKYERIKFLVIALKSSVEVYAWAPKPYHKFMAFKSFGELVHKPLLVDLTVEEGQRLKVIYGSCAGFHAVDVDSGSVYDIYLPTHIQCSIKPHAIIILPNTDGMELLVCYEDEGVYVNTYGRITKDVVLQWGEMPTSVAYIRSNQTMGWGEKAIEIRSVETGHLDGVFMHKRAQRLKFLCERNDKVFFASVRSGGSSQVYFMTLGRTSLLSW
INSR, sequence (P06213 28-758 limits assumed): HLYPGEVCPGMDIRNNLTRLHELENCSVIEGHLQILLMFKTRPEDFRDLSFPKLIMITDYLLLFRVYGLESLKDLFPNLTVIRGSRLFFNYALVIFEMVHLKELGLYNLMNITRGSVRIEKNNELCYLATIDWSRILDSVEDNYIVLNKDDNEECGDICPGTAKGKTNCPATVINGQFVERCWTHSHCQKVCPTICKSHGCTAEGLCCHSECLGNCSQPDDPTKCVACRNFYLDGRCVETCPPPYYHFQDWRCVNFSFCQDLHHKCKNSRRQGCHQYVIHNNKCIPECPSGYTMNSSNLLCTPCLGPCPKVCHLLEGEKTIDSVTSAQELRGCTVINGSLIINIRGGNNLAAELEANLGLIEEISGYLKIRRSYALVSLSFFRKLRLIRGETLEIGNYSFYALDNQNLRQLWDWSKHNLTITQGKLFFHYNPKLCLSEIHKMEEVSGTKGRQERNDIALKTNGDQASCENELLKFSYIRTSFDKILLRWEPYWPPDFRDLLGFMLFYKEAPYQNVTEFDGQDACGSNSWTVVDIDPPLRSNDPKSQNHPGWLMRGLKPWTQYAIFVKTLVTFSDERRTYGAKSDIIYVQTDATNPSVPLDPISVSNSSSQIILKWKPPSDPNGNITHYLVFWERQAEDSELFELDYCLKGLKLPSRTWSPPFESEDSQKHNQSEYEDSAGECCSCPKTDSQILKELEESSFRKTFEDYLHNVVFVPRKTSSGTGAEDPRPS
INSR, sequence (P06213 763-1382 limits assumed): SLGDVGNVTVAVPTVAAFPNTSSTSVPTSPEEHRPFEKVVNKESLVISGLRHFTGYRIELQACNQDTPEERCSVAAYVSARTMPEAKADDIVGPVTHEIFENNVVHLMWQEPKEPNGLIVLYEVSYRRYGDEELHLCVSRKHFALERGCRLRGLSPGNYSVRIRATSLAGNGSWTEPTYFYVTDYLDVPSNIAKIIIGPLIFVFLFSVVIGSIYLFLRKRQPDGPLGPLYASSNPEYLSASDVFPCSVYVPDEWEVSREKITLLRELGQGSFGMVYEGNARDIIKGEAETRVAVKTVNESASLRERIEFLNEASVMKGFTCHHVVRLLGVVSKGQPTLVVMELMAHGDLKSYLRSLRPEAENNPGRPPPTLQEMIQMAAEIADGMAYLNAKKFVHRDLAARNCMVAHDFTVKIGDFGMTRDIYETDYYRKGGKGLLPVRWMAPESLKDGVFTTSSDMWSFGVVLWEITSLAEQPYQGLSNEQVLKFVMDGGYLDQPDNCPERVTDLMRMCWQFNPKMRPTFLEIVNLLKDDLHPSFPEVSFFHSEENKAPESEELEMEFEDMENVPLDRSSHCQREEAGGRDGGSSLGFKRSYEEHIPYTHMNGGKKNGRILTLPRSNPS
CSNK1D, sequence (P48730 whole entry, the tested form may be a part): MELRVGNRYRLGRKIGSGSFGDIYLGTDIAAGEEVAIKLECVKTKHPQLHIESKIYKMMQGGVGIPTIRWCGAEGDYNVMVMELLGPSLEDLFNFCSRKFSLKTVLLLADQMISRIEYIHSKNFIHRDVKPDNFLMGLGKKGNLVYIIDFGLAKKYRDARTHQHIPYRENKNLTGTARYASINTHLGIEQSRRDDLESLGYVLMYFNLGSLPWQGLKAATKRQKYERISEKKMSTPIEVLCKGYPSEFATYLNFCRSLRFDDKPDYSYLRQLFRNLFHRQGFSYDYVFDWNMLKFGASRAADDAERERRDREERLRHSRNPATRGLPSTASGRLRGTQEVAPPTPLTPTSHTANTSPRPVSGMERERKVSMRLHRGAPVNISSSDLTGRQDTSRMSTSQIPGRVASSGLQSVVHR

As a reminder, the inhibition is the drop in the measured response relative to a control, in per cent. One may read the MIC as the least concentration at which growth counts as inhibited. Regarding `CC(C)COc1cccc(Cl)c1-c1cc2cnc(N)nc2nc1N1C[C@@H]2[C@@H](N)[C@@H]2C1`, the inhibition at 1 h, 25 µM on CHEK1 came to 42%; at MAP4K4, 24%; at AKT1 it was 7%; on PDK1 it was 0%; at NTRK1, 40%; at INSR, 3%. Moreover, the inhibition at 1 h, 25 µM is -8% at PRKCZ; 3% at CSNK1D; 60% on FGFR1; 67% at CHEK2; 21% on MAPKAPK2; 7% at GSK3B. The inhibition at 1 h, 25 µM on PAK4 turned out to be 23%; on EGFR it was 6%. Also, the MIC in the series with Escherichia coli is 0.015 µg/mL.
As for `Nc1ncc2cc(-c3c(Cl)cccc3-c3cccnc3)c(N3C[C@@H]4[C@@H](N)[C@@H]4C3)nc2n1`, the inhibition at 1 h, 25 µM was found to be 28% on CHEK1; 21% on MAP4K4; 6% on AKT1; 0% on PDK1; 47% on NTRK1; 3% at INSR. For the same compound, the inhibition at 1 h, 25 µM at PRKCZ is 5%; at CSNK1D, 3%; at FGFR1, 57%; at CHEK2, 20%; on MAPKAPK2 it was 26%; at GSK3B it was 4%. Besides, the inhibition at 1 h, 25 µM is 25% on PAK4 and 65% at EGFR. In addition, the MIC in the series on Escherichia coli turned out to be 0.008 µg/mL.
For `Nc1ncc2cc(-c3c(Br)cccc3Br)c(N)nc2n1`, the inhibition at 1 h, 25 µM at CHEK1 is -1%; on MAP4K4, 52%; on AKT1, 4%; at PDK1, 3%; on NTRK1, 47%; at INSR, 6%. In addition, the inhibition at 1 h, 25 µM at PRKCZ came out at 0%; on CSNK1D, 16%; on FGFR1, 78%; at CHEK2, 13%; on MAPKAPK2, 10%; at GSK3B it was 6%. Also, the figures for the inhibition at 1 h, 25 µM on PAK4 and on EGFR were 20% and 58%, respectively. The MIC in the series with Escherichia coli is 0.12 µg/mL.
